Measured values as given in US9938587B2 (priority 2011, dated 2018).

Columns and labels:
[1] = tested on: fluorescent reporter plasmid DNA; assay: HCR of plasmids containing etheno lesions induced by CAA; format: cell-based, Human; conditions: plasmids treated with CAA; lymphoblastoid cell lines
Source text: Dose and cell line dependent inhibition of transcription in plasmids treated with CAA is shown at right.

[2] = tested on: DNA repair reporter vectors; assay: HCR of DNA repair reporter vectors treated with Cisplatin; format: cell-based; conditions: reporter vectors treated with Cisplatin before transfection; effect more pronounced in XPA and XPF deficient cells
[3] = molecular target: T1, MGMT (Homo sapiens, UniProt P16455); assay: O^6Methylguanine HCR (mPlum:T208C reporter), MGMT dependence of signal; format: cell-based; conditions: TK6+MGMT cells incubated with compound before and after transfection
T1 construct: expressed in transfected cells; host or cells: TK6 lymphoblastoid cells (MGMT-deficient) complemented with MGMT (TK6+MGMT)
T1 sequence (P16455 1-207): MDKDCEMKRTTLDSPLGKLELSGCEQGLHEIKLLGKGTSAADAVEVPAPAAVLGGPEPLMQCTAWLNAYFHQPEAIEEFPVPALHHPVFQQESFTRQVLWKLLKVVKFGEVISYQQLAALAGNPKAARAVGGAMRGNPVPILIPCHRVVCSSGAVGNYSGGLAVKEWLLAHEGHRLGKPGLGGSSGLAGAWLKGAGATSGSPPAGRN
Protocol: FIG. 46 is a bar graph showing that the lack of signal is MGMT dependent. BnG stands for O^6-benzylguanine, which inhibits MGMT.
FIG. 44 is an illustration providing an assay for O^6Methylguanine HCR. An […] in fluorescence is expected when the reporter plasmid containing the mPlum:T208C mutation is treated with an agent that induces O^6MeG.
FIG. 46 is a bar graph showing that the lack of signal is MGMT dependent. Reporter expression has been normalized to that for TK6. As expected, the highest reporter expression is observed in MGMT deficient cells.

SMILES: O=CCCl [chloroacetaldehyde]
- fluorescent reporter expression [1]: dose-dependent decrease in fluorescent reporter expression

SMILES: N.N.[Cl][Pt][Cl] [Cisplatin]
- fluorescent reporter expression [2]: suppresses florescent reporter expression in a dose dependent manner

SMILES: Nc1nc(OCc2ccccc2)c2nc[nH]c2n1 [O^6Benzylguanine, O^6-benzylguanine]
- reporter expression normalized to TK6 [3]: elevated reporter expression similar to that of the MGMT deficient TK6 cells
